Source: patent US11499978B2, “Method for measuring quality of therapeutic cell through real-time glutathione measurement” (CELL2IN, INC., priority 2017, dated 2022)

Tests used:
[1] = tested on: hUC-MSCs; assay: SDF1α- and PDGF-AA-induced migration capacity of hUC-MSCs; type: cell-based, human; conditions: 125 or 250 μg/mL AA2G for three days, n=3
Protocol: The inventors observed an effect of the material on stem cells by treating each stem cells with a material for enhancing a glutathione evaluation parameter. When hUC-MSCs were subcultured in a L-AA2G-containing medium, CFU-F, migration capacity, and an anti-inflammatory effect were observed. A CFU-F assay (n=3) was performed by treating hUC-MSCs with 125 or 250 μg/mL of AA2G for three days. As shown in FIGS. 16A and 16B, it was confirmed that, when AA2G was treated, CFU-F increased. In addition, as hUC-MSCs were treated with 125 or 250 μg/mL of AA2G for three days, PDGF-AA-induced migration capacity (n=3) was analyzed. As shown in FIGS. 17A and 17B, it was confirmed that the migration capacity was increased by AA2G treatment. In addition, the reduction in T cell proliferation, the reduction in T cell differentiation, and the promotion of Treg cell differentiation were observed by treating hUC-MSCs with 125 or 250 μg/mL of AA2G for three days. […] Meanwhile, hUC-MSCs were cultured with a glutathione precursor such as γ-glutamyl cysteine (GGC, 0.1, 0.25, and 0.5 mM). […] In addition, SDF1α and PDGF-AA-induced migration capacities (n=3) were analyzed for hUC-MSCs without treatment with GGC, and SDF1α and PDGF-AA-induced migration abilities (n=3) were analyzed by treating hUC-MSCs with the increasing concentrations of GGC. […]

[2] = tested on: hUC-MSCs; assay: FreSH-Tracer-based glutathione regeneration capacity (GRC) in hUC-MSCs; set-up: species or system human; conditions: hUC-MSCs subcultured three times with AA2G 250 μg/mL; low concentration of diamide; compared with naive cell group
Protocol: GRC refers to a value obtained by real-time monitoring of FR after living cells are treated with an oxidizing agent, as calculated by dividing a value obtained by subtracting AUC of a group treated with 0.1-100 mM N-ethylmaleimide (NEM) from FR AUC of an oxidizing agent (diamide, H2O2, etc.)-treated group by a value obtained by subtracting the AUC of NEM-treated group from AUC of the untreated control, and multiplying the resulting value by 100. The FR of the NEM-treated group is a value for increasing the sensitivity of a GRC value by treating it as the blank value of the FR of the cells of interest. […] To remove the MitoFreSH-Tracer from the medium before measurement, the medium was exchanged with fresh 10 mM HEPES-containing HBSS(Hanks' Balanced Salt Solution), and a fluorescence image was obtained using a confocal imaging system, Operetta. By comparing GSH levels quantified from control cells not treated with RSL3 or control cells before treated with RSL3, the distribution of GSH expression-changed cells was calculated. Based on the point where the distribution histogram is divided into two peaks, the cells were divided into GSH^High cells (right peak) and GSH^Low cells (left peak), and then a ratio of corresponding cells was expressed as a percentage (%). […]

[3] = tested on: hUC-MSCs; assay: CFU-F assay of hUC-MSCs; type: cell-based, human; conditions: 125 or 250 μg/mL AA2G for three days, n=3
Protocol: The inventors observed an effect of the material on stem cells by treating each stem cells with a material for enhancing a glutathione evaluation parameter. When hUC-MSCs were subcultured in a L-AA2G-containing medium, CFU-F, migration capacity, and an anti-inflammatory effect were observed. A CFU-F assay (n=3) was performed by treating hUC-MSCs with 125 or 250 μg/mL of AA2G for three days. As shown in FIGS. 16A and 16B, it was confirmed that, when AA2G was treated, CFU-F increased. In addition, as hUC-MSCs were treated with 125 or 250 μg/mL of AA2G for three days, PDGF-AA-induced migration capacity (n=3) was analyzed. As shown in FIGS. 17A and 17B, it was confirmed that the migration capacity was increased by AA2G treatment. In addition, the reduction in T cell proliferation, the reduction in T cell differentiation, and the promotion of Treg cell differentiation were observed by treating hUC-MSCs with 125 or 250 μg/mL of AA2G for three days. […] Meanwhile, hUC-MSCs were cultured with a glutathione precursor such as γ-glutamyl cysteine (GGC, 0.1, 0.25, and 0.5 mM). A CFU-F assay (n=3) was performed by treating hUC-MSCs with each concentration of GGC for 2 hours. […] In addition, SDF1α and PDGF-AA-induced migration capacities (n=3) were analyzed for hUC-MSCs without treatment with GGC, and SDF1α and PDGF-AA-induced migration abilities (n=3) were analyzed by treating hUC-MSCs with the increasing concentrations of GGC. STI571 was used as a PDGFR kinase inhibitor. As shown in FIGS. 20A to 20C, it was confirmed that, according to an increase in GGC treatment concentration, SDF1α- and PDGF-AA-induced migration capacities were enhanced. A CFU-F assay (n=3) was performed by treating hUC-MSCs with 0.2, 1, 2, and 4 μM ferrostatin-1 and 0.1, 0.5, 1, and 2 μM liproxstatin-1 for 24 hours.

O=C1O[C@H]([C@@H](O)CO)C(O)=C1O[C@H]1O[C@H](CO)[C@@H](O)[C@H](O)[C@H]1O [AA2G, ascorbic acid 2-glucoside]
increased: PDGF-AA-induced migration capacity [1] | FreSH-Tracer-based GRC [2] | CFU-F [3]
